According to ChEMBL document CHEMBL6109137, “Design, Synthesis, Evaluation, and SAR of 5-Phenylisoindoline Derivatives, a Potent Class of Small-Molecule Inhibitors Targeting the Programmed Cell Death-1/Programmed Cell Death-Ligand 1 (PD-1/PD-L1) Interaction” (J Med Chem, 2025):

Columns and labels:
[1] = Cytotoxicity against human L02 cells measured after 48 hrs by MTT assay; assay type: toxicity, cell-based
[2] = Tmax in Sprague-Dawley rat at 20 mg/kg, po measured for 24 hrs by LC-MS/MS analysis; assay type: ADME, organism-based; details: in vivo
[3] = AUC (0 to 24 hrs) in Sprague-Dawley rat at 20 mg/kg, po measured for 24 hrs by LC-MS/MS analysis; assay type: ADME, organism-based; details: in vivo
MC-38 = experiment: Antitumor activity against mouse MC38 cells implanted in C57BL/6J mouse at 5 to 20 mg/kg, ip qd for 13 days relative to control; assay type: functional; details: dose 5-20 mg/kg, time 13 day
[4] = Toxicity in C57BL/6J mouse implanted with mouse MC38 cells assessed as change in serum AST level at 5 to 20 mg/kg, ip qd for 13 days; assay type: organism-based; details: in vivo, 312 h, dose 5-20 mg/kg, time 13 day
[5] = Toxicity in C57BL/6J mouse implanted with mouse MC38 cells assessed as body weight change at 40 to 160 mg/kg, IG qd for 7 days; assay type: organism-based; details: in vivo, po, 168 h, dose 40-160 mg/kg, time 7 day
[6] = Toxicity in C57BL/6J mouse implanted with mouse MC38 cells assessed as heart weight ratio at 40 to 160 mg/kg, IG qd for 7 days; assay type: organism-based; details: in vivo, po, 168 h, dose 40-160 mg/kg, time 7 day
[7] = Toxicity in C57BL/6J mouse implanted with mouse MC38 cells assessed as change in monocytes count at 40 to 160 mg/kg, IG qd for 7 days; assay type: organism-based; details: in vivo, po, 168 h, dose 40-160 mg/kg, time 7 day
[8] = Toxicity in C57BL/6J mouse implanted with mouse MC38 cells assessed as change in MCV count at 40 to 160 mg/kg, IG qd for 7 days; assay type: organism-based; details: in vivo, po, 168 h, dose 40-160 mg/kg, time 7 day
[9] = Toxicity in C57BL/6J mouse implanted with mouse MC38 cells assessed as change in HGB count at 40 to 160 mg/kg, IG qd for 7 days; assay type: organism-based; details: in vivo, po, 168 h, dose 40-160 mg/kg, time 7 day

## C[C@H](N)C(=O)N1Cc2ccc(-c3cccc(-c4ccc5c(c4)OCCO5)c3Cl)cc2C1.Cl
[1]
  IC50 at 48 h: > 10 µM
[2]
  Tmax: 2.5 h
[3]
  AUC(0-t) at 24 h: 467 ng·h/mL
MC-38
  TGI: 52.8%
[4]
  Activity: Non-toxic
[5]
  Activity: Non-toxic
[6]
  Activity: Non-toxic
[7]
  Activity: Non-toxic
[8]
  Activity: Non-toxic
[9]
  Activity: Non-toxic
